Results: ChEMBL document CHEMBL2424615, “Design, synthesis, and characterization of novel tetrahydropyran-based bacterial topoisomerase inhibitors with potent anti-gram-positive activity” (J Med Chem, 2013)

Key:
hERG (KCNH2) = hERG (KCNH2) (Homo sapiens, UniProt Q12809); assay: Inhibition of human ERG expressed in CHO cells at 10 uM after 3 mins by patch clamp assay relative to control; type: cell-based; settings: CHO cells that express human ERG
DNA gyrase = DNA gyrase (Staphylococcus aureus, UniProt P0A0K8+P20831); assay: Inhibition of wild type Staphylococcus aureus DNA gyrase subunit 2GyrA/2GyrB assessed as pBR322 supercoiling after 1 hr; type: protein-complex assay
Staphylococcus aureus [1] = assay: Antibacterial activity against NXL-101-resistant Staphylococcus aureus A-234 harboring DNA gyrase subunit A D83N mutant assessed as growth inhibition by broth microdilution method; type: functional
Escherichia coli = assay: Antibacterial activity against wild type Escherichia coli ATCC 25922 assessed as growth inhibition by broth microdilution method; type: functional
Pseudomonas aeruginosa = assay: Antibacterial activity against wild type Pseudomonas aeruginosa ATCC 27853 assessed as growth inhibition by broth microdilution method; type: functional
Streptococcus pneumoniae = assay: Antibacterial activity against wild type Streptococcus pneumoniae ATCC 49619 assessed as growth inhibition by broth microdilution method; type: functional
Staphylococcus aureus [2] = assay: Antibacterial activity against wild type Staphylococcus aureus ATCC 29213 assessed as growth inhibition by broth microdilution method; type: functional
[3] = Inhibition of wild type Escherichia coli ATCC 25922 DNA gyrase subunit 2GyrA/2GyrB assessed as pBR322 supercoiling after 1 hr
[4] = Inhibition of wild type Escherichia coli ATCC 25922 DNA topoisomerase-4 subunit 2ParC/2ParE assessed as pBR322 relaxation after 1 hr
Topoisomerase IV = Topoisomerase IV (Staphylococcus aureus, UniProt P0C1S7+P0C1U9); assay: Inhibition of wild type Staphylococcus aureus ATCC 29213 topoisomerase-4 subunit 2GrlA/2GrlB assessed as pBR322 relaxation after 1 hr; type: protein-complex assay

Structure (SMILES)	inhibition at 0.05 h, 10 µM (hERG (KCNH2))	IC50 (DNA gyrase)	MIC (Staphylococcus aureus [1])	MIC (Escherichia coli)	MIC (Pseudomonas aeruginosa)	MIC (Streptococcus pneumoniae)	MIC (Staphylococcus aureus [2])	IC50 [3]	IC50 [4]	IC50 (Topoisomerase IV)
COc1ccc2ncc(F)c([C@@H](O)[C@H](O)[C@@H]3CC[C@@H](NCc4ccc5c(n4)NC(=O)CS5)CO3)c2c1	15%	125 nM	> 8 µg/mL	4 µg/mL	> 8 µg/mL	0.25 µg/mL	0.25 µg/mL	2000 nM	125 nM	8000 nM
COc1cc(F)c2nccc([C@@H](O)[C@H](O)[C@@H]3CC[C@@H](NCc4ccc5c(n4)NC(=O)CS5)CO3)c2c1	20%	125 nM	4 µg/mL	4 µg/mL	> 8 µg/mL	0.25 µg/mL	0.03 µg/mL	2000 nM	125 nM	8000 nM
COc1ccc2nccc([C@@H](O)[C@H](O)[C@@H]3CC[C@@H](NCc4ccc5c(n4)NC(=O)CS5)CO3)c2c1	24%	250 nM	> 8 µg/mL	4 µg/mL	> 8 µg/mL	0.25 µg/mL	0.25 µg/mL	2000 nM	125 nM	8000 nM
COc1cnc2ccc(F)c([C@@H](O)[C@H](O)[C@@H]3CC[C@@H](NCc4cc5c(cn4)OCCO5)CO3)c2n1	11%	125 nM	8 µg/mL	8 µg/mL	> 8 µg/mL	0.125 µg/mL	≤ 0.015 µg/mL	8000 nM	500 nM	8000 nM
COc1cnc2ccc(F)c([C@@H](O)[C@H](O)[C@@H]3CC[C@@H](NCc4cc5c(cn4)OCCS5)CO3)c2n1	33%	30 nM	2 µg/mL	8 µg/mL	> 8 µg/mL	0.03 µg/mL	≤ 0.015 µg/mL	8000 nM	125 nM	8000 nM
COc1cnc2ccc(F)c([C@@H](O)[C@H](O)[C@@H]3CC[C@@H](NCc4cc5c(nn4)OCCS5)CO3)c2n1	0%	125 nM	8 µg/mL	> 8 µg/mL	> 8 µg/mL	0.125 µg/mL	≤ 0.015 µg/mL	8000 nM	2000 nM	> 8000 nM
COc1ccc2ncc(F)c([C@@H](O)[C@H](O)[C@@H]3CC[C@@H](NCc4cc5c(cn4)OCCO5)CO3)c2n1	10%	30 nM	2 µg/mL	> 8 µg/mL	> 8 µg/mL	0.03 µg/mL	0.03 µg/mL	8000 nM	125 nM	8000 nM
COc1ccc2ncc(F)c([C@@H](O)[C@H](O)[C@@H]3CC[C@@H](NCc4cc5c(nn4)OCCS5)CO3)c2n1	3%	125 nM	8 µg/mL	> 8 µg/mL	> 8 µg/mL	0.06 µg/mL	≤ 0.015 µg/mL	8000 nM	500 nM	8000 nM
COc1ccc2ncc(F)c([C@@H](O)[C@H](O)[C@@H]3CC[C@@H](NCc4cc5c(nn4)OCCO5)CO3)c2n1	7%	125 nM	> 8 µg/mL	> 8 µg/mL	> 8 µg/mL	0.5 µg/mL	0.125 µg/mL	> 8000 nM	2000 nM	> 8000 nM
COc1ccc2nccc(/C=C/[C@@H]3CC[C@@H](NCc4ccc5c(n4)NC(=O)CS5)CO3)c2n1	94%	125 nM	4 µg/mL	4 µg/mL	> 8 µg/mL	1 µg/mL	0.125 µg/mL	500 nM	30 nM	2000 nM
COc1ccc2nccc(/C=C/[C@@H]3CC[C@@H](NCc4cc5c(cn4)OCCO5)CO3)c2n1	88%	125 nM	> 8 µg/mL	> 8 µg/mL	> 8 µg/mL	1 µg/mL	0.25 µg/mL	> 8000 nM	–	> 8000 nM
COc1ccc2nccc(CC[C@@H]3CC[C@@H](NCc4cc5c(cn4)OCCO5)CO3)c2n1	82%	< 30 nM	4 µg/mL	8 µg/mL	> 8 µg/mL	0.5 µg/mL	0.06 µg/mL	8000 nM	125 nM	> 8000 nM
